Where “and” joins values, the source holds several entries; their conditions need not be identical. Equal values may be shown once.
Key:
AMO-1 cells = test: Cell proliferation, XTT-based assay; design: species or system human; conditions: Homo sapiens, AMO1, bortezomib alone, XTT, read-out: IC50 (inhibition of cell proliferation)
Description: (§1) Cells were collected and distributed in 96-well plates with 5000 cells per well.
(§2) After incubation, plates were analyzed for cell proliferation in a quantitative colorimietric XTT-based assay using the cell proliferation kit II (ROCHE, Cell Proliferation Kit II, Cat. No.: 11465015001). For subsequent measurement plates were subjected to Tecan Genios Reader and absorbance at 492 nm was detected.
(§3) Increasing amounts of Bortezomib (Velcade®, Lot: No.: #9AZSY00) were applied to AMO-1, LP-1, NCI-H929 and RPMI-8226 cells and incubated for 24 h, 48 h and 72 h. After incubation, period plates were analyzed for cell proliferation in a quantitative colorimietric XTT-based assay using the cell proliferation kit II (ROCHE, Cell Proliferation Kit II, Cat. No.: 11465015001). For subsequent measurement, plates were subjected to Tecan Genios Reader and absorbance at 492 nm was detected.

LP-1 cells [1] = test: Cell proliferation, XTT-based assay; conditions: Homo sapiens, bortezomib alone, read-out: IC50 (inhibition of cell proliferation)
Description: as §3

RPMI-8226 cells = test: Cell proliferation, XTT-based assay; conditions: Homo sapiens, bortezomib alone, read-out: IC50 (inhibition of cell proliferation)
Description: as §3

LP-1 cells [2] = test: ADCC with human PBMCs, flow cytometry (CalceinAM/PI); type: cell-based; conditions: LP-1 target cells treated with bortezomib before MOR202 15 μg/ml; FIG. 10
Description: Using the methods described in Example 4, the ADCC effect of combining bortezomib and MOR202 was analyzed. Here, the target cells were treated with bortezomib prior to the treatment with MOR202. Both target cells. NCI-H929 and LP-1 cells were tested.

NCI-H929 MM cells = test: NCI-H929 bone lysis SCID mouse model, MOR202 and BOR (MicroCT); type: in vivo, SCID mice
Source text: 63 SCID mice were inoculated on Day (−7) intra-tibially with 2.5×10^6 NCI-H929 MM cells in order to induce bone lysis. Bortezomib (Groups A and AB) and Vehicle Control (Group C) treatments started on Day (−1). MOR202 treatments (Groups B and AB) started on Day 0. Treatment continued for 6 weeks.
MicroCT Scan was used to assess bone lysis and included a 3-dimensional analysis comprising Total Bone Volume (TBV), Trabecular Bone Volume (Tb.BV), Trabecular Pattern Factor (Tb.Pf) and Structure Model Index (SMI). Table 10 above defines each of these parameters.

RAMOS cells = conditions: BOR 0.6 mg/kg i.p., MOR202 1 mg/kg i.v.
Description: Fifty-five female SCID mice were pre-treated with Cyclophosphamide (75 mg/kg, i.p., twice daily) for two days prior to RAMOS cell inoculation (Day −5 and −4). On the day of inoculation (Day −3), all fifty-five mice were inoculated with 1×10^6 RAMOS cells each (in 100 μL) intravenously into the tail vein. Forty-eight of the mice were randomised by body weight into six groups of eight.
The study continued for 98 days and the measured endpoint was survival.

NCI-H929 cells [3] = test: Cell proliferation, XTT-based assay; conditions: Homo sapiens, NCI-H929, read-out: IC50 (inhibition of cell proliferation)
Description: as §1, §2, §3

NCI-H929 cells [4] = test: ADCC with human PBMCs, flow cytometry (CalceinAM/PI); conditions: NCI-H929 target cells treated with bortezomib before MOR202 15 μg/ml; FIG. 9
Description: PBMC's were isolated by density gradient centrifugation of freshly isolated human blood. Isolated blood from different donors were layered on a defined volume of Biocoll (Biochrome AG; CAT No.:L6115; LOT No.:1050T) in a Falcon tube and centrifuged at 380 g. The PBMCs were isolated and supplemented with RPMI medium.
Cell suspensions were further incubated for 4 h at 37° C. To detect dead AMO-1 cells, cell suspensions were challenged with propidium iodide (PI) and subsequently analyzed in flow cytometry. Target cells were separated via gating of CalceinAM positive cell populations, and cells killed via ADCC were quantified.
Single and combination doses of 5 μM LEN and 15 μg/ml of MOR03207 and 0.2 or 0.07 μg/ml MOR202 were used.
Single and combination doses of 5 μM LEN and 15 μg/ml of MOR03207 and 0.2* or 0.07 μg/m MOR202 were used.

[5] = Bortezomib 0.6 mg/kg i.p. twice per week, MOR202 3 mg/kg i.p. three times per week, 6 weeks, lower = less bone lysis
[6] = group average of 10 mice, Bortezomib 0.6 mg/kg i.p., MOR202 3 mg/kg i.p., 6 weeks

## CC(C)C[C@H](NC(=O)[C@H](Cc1ccccc1)NC(=O)c1cnccn1)B(O)O [bortezomib]
AMO-1 cells
  IC50: 3.9 nM
LP-1 cells [1]
  IC50: 6.1 nM
RPMI-8226 cells
  IC50: 9 nM
LP-1 cells [2]
  Enhancement of MOR202 ADCC activity by bortezomib (in words): enhancement in MOR202 activity
NCI-H929 MM cells; [5]
  Structure Model Index (SMI), individual mouse: 2.443 and 2.374 and 2.156 and 2.262 and 2.700 and 2.981 and 3.007 and 2.553 and 2.337 and 2.273
  Trabecular Pattern Factor (Tb · Pf), individual mouse: 25.893 mm^−1 and 26.044 mm^−1 and 16.877 mm^−1 and 23.179 mm^−1 and 32.463 mm^−1 and 33.152 mm^−1 and 34.609 mm^−1 and 31.813 mm^−1 and 27.147 mm^−1 and 23.582 mm^−1
NCI-H929 MM cells; [6]
  Structure Model Index (SMI), Average: 2.509
  Trabecular Pattern Factor (Tb · Pf), Average: 27.476 mm^−1
NCI-H929 MM cells; non-inoculated tibia = 0%, vehicle = 100% bone lysis, MOR202 alone 12 mg/kg, BOR alone 0.6 mg/kg, combination 3 mg/kg MOR202 and 0.6 mg/kg BOR
  Reduction of bone lysis compared to vehicle control: 40%
RAMOS cells
  Number of mice alive at study termination (day 98): 0/8
RAMOS cells; study 98 days
  Day of death (post-inoculation) Mean: 19.1 days
  Day of death (post-inoculation) Median: 19 days
RAMOS cells; vs vehicle control
  % ILS (based on median death day): −7%
NCI-H929 cells [3]
  IC50: 3.3 nM
NCI-H929 cells [4]
  Enhancement of MOR202 ADCC activity by bortezomib (in words): enhancement in MOR202 activity

Reference: patent US9289490B2, “Combinations and uses thereof” (MORPHOSYS AG, priority 2010, dated 2016)
